Assays:
Assay type in all cases: in vivo
Echinochloa oryzicola = assay: Submerged foliar treatment test (Test Example 3); conditions: water depth 3 cm, cotyledon to 1-leaf stage, wettable powder, active ingredient 10 g/a, 28th day from the treatment
Experimental: (§1) The herbicidal effect was evaluated in terms of herbicidal rate obtained from the following equation: Herbicidal rate (%)=[1−(Weight of weeds above the ground in a treated plot)/(Weight of weeds above the ground in a non-treated plot)]×100
(§2) and was expressed by herbicidal index according to the following criteria.
(§3) Alluvial soil from a paddy field was put in a resin-made vat having an area of 200 cm^2. After fertilization, seeds of Echinochloa oryzicola, Rotala indica and Scirpus juncoides were cast on the soil and uniformly covered with the soil, and water was poured onto the soil to keep a water depth of 3 cm. Then, cultivation was continued in a greenhouse, and when the weeds to be tested reached the cotyledon stage to 1-leaf stage, the wettable powder obtained in Formulation Example 1 was diluted with water and a predetermined amount thereof was added dropwise uniformly to the weeds by means of a pipette to give 10 g of the active ingredient per an are. Thereafter, cultivation was further continued in the greenhouse, and the herbicidal effect was examined on the 28th day from the treatment. The results obtained are shown in Table 9 (the compound numbers in Table 9 correspond to those in Tables 1 to 6).

Rotala indica = assay: Submerged foliar treatment test (Test Example 3); conditions: water depth 3 cm, cotyledon to 1-leaf stage, wettable powder, active ingredient 10 g/a, 28th day from the treatment
Experimental: as §1, §2, §3

Scirpus juncoides = assay: Submerged foliar treatment test (Test Example 3); conditions: water depth 3 cm, cotyledon to 1-leaf stage, wettable powder, active ingredient 10 g/a, 28th day from the treatment
Experimental: as §1, §2, §3

Brassica juncea = assay: Field foliar treatment test (Test Example 1); conditions: foliar spray at 1.0- to 2.0-leaf stage, wettable powder, active ingredient 10 g/a, 21st day from the treatment
Experimental: (§4) Alluvial soil from a field was put in a resin-made vat having an area of 200 cm^2. After fertilization, the seeds of Echinochloa crus-galli, Brassica juncea, and Ipomoea purpurea were cast on the soil and uniformly covered with the soil. Then, cultivation was continued in a greenhouse, and when the weeds to be tested reached the 1.0- to 2.0-leaf stage, the wettable powder obtained in Formulation Example 1 was diluted with water and a predetermined amount thereof was sprayed uniformly to the weeds by means of a small-sized power pressure spray to give 10 g of the active ingredient per an are. Thereafter, cultivation was further continued in the greenhouse, and the herbicidal effect was examined on the 21st day from the treatment. The results obtained are shown in Table 7 (the compound numbers in Table 7 correspond to those in Table 1 to 6). The herbicidal effect was evaluated in terms of herbicidal rate obtained from the following equation: Herbicidal rate (%)=[1−(Weight of weeds above the ground in a treated plot)/(Weight of weeds above the ground in a non-treated plot)]×100 and was expressed by herbicidal index according to the following criteria. [table]

Echinochloa crus-galli = assay: Field foliar treatment test (Test Example 1); conditions: foliar spray at 1.0- to 2.0-leaf stage, wettable powder, active ingredient 10 g/a, 21st day from the treatment
Experimental: as §4

Ipomoea purpurea = assay: Field foliar treatment test (Test Example 1); conditions: foliar spray at 1.0- to 2.0-leaf stage, wettable powder, active ingredient 10 g/a, 21st day from the treatment
Experimental: as §4

SMILES: CC(=O)OC1COCC1Oc1nc(-c2cccc(C(F)(F)F)c2)c2cc(C)sc2n1 (mixture of isomers) [6-188]
- Herbicidal effect Echinochloa oryzicola (herbicidal index) (Echinochloa oryzicola): 5 (91 to 100)
- Herbicidal effect Rotala indica (herbicidal index) (Rotala indica): 5 (91 to 100)
- Herbicidal effect Scirpus juncoides (herbicidal index) (Scirpus juncoides): 4 (71 to 90)

SMILES: Cc1cc2c(-c3cccc(OC(F)(F)F)c3)nc(Cl)nc2s1 [5-9]
- Herbicidal effect Echinochloa oryzicola (herbicidal index) (Echinochloa oryzicola): 5 (91 to 100)
- Herbicidal effect Rotala indica (herbicidal index) (Rotala indica): 5 (91 to 100)
- Herbicidal effect Scirpus juncoides (herbicidal index) (Scirpus juncoides): 4 (71 to 90)

SMILES: CCCOc1nc(-c2cccc(C(F)(F)F)c2)c2cc(CC)sc2n1 [6-8]
- Herbicidal effect Echinochloa oryzicola (herbicidal index) (Echinochloa oryzicola): 5 (91 to 100)
- Herbicidal effect Rotala indica (herbicidal index) (Rotala indica): 4 (71 to 90)
- Herbicidal effect Scirpus juncoides (herbicidal index) (Scirpus juncoides): 4 (71 to 90)

SMILES: CCOc1nc(-c2cccc(C(F)(F)F)c2)c2cc(C)sc2n1 [6-24]
- Herbicidal effect Echinochloa oryzicola (herbicidal index) (Echinochloa oryzicola): 5 (91 to 100)
- Herbicidal effect Rotala indica (herbicidal index) (Rotala indica): 5 (91 to 100)
- Herbicidal effect Scirpus juncoides (herbicidal index) (Scirpus juncoides): 4 (71 to 90)

SMILES: CCOc1nc(-c2cccc(OC(F)(F)F)c2)c2cc(C)sc2n1 [6-34]
- Herbicidal effect Echinochloa oryzicola (herbicidal index) (Echinochloa oryzicola): 5 (91 to 100)
- Herbicidal effect Rotala indica (herbicidal index) (Rotala indica): 5 (91 to 100)
- Herbicidal effect Scirpus juncoides (herbicidal index) (Scirpus juncoides): 5 (91 to 100)

SMILES: Cc1cc2c(-c3cccc(OC(F)F)c3)nc(OC(C)C)nc2s1 [6-41]
- Herbicidal effect Echinochloa oryzicola (herbicidal index) (Echinochloa oryzicola): 5 (91 to 100)
- Herbicidal effect Rotala indica (herbicidal index) (Rotala indica): 5 (91 to 100)
- Herbicidal effect Scirpus juncoides (herbicidal index) (Scirpus juncoides): 4 (71 to 90)

SMILES: CCCCCOc1nc(-c2ccccc2C)c2cc(C)sc2n1 [6-47]
- Herbicidal effect Echinochloa oryzicola (herbicidal index) (Echinochloa oryzicola): 4 (71 to 90)
- Herbicidal effect Rotala indica (herbicidal index) (Rotala indica): 3 (51 to 70)
- Herbicidal effect Scirpus juncoides (herbicidal index) (Scirpus juncoides): 1 (6 to 30)

SMILES: CCOc1nc(-c2sccc2C)c2cc(C)sc2n1 [6-50]
- Herbicidal effect Echinochloa oryzicola (herbicidal index) (Echinochloa oryzicola): 3 (51 to 70)
- Herbicidal effect Rotala indica (herbicidal index) (Rotala indica): 4 (71 to 90)
- Herbicidal effect Scirpus juncoides (herbicidal index) (Scirpus juncoides): 3 (51 to 70)

SMILES: CCCOc1nc(-c2cccc(Cl)c2)c2cc(C)sc2n1 [6-52]
- Herbicidal effect Echinochloa oryzicola (herbicidal index) (Echinochloa oryzicola): 5 (91 to 100)
- Herbicidal effect Rotala indica (herbicidal index) (Rotala indica): 5 (91 to 100)
- Herbicidal effect Scirpus juncoides (herbicidal index) (Scirpus juncoides): 3 (51 to 70)

SMILES: Cc1cc2c(-c3cccc(Cl)c3)nc(OC3CCCC3)nc2s1 [6-54]
- Herbicidal effect Echinochloa oryzicola (herbicidal index) (Echinochloa oryzicola): 5 (91 to 100)
- Herbicidal effect Rotala indica (herbicidal index) (Rotala indica): 5 (91 to 100)
- Herbicidal effect Scirpus juncoides (herbicidal index) (Scirpus juncoides): 4 (71 to 90)

SMILES: CCCOc1nc(-c2ccccc2Cl)c2cc(C)sc2n1 [6-56]
- Herbicidal effect Echinochloa oryzicola (herbicidal index) (Echinochloa oryzicola): 5 (91 to 100)
- Herbicidal effect Rotala indica (herbicidal index) (Rotala indica): 5 (91 to 100)
- Herbicidal effect Scirpus juncoides (herbicidal index) (Scirpus juncoides): 4 (71 to 90)

SMILES: Cc1cc2c(-c3cccc(Br)c3)nc(OCC(C)(C)C)nc2s1 [6-60]
- Herbicidal effect Echinochloa oryzicola (herbicidal index) (Echinochloa oryzicola): 5 (91 to 100)
- Herbicidal effect Rotala indica (herbicidal index) (Rotala indica): 5 (91 to 100)
- Herbicidal effect Scirpus juncoides (herbicidal index) (Scirpus juncoides): 5 (91 to 100)

SMILES: CCCOc1nc(-c2cccc(OC)c2)c2cc(C)sc2n1 [6-62]
- Herbicidal effect Echinochloa oryzicola (herbicidal index) (Echinochloa oryzicola): 5 (91 to 100)
- Herbicidal effect Rotala indica (herbicidal index) (Rotala indica): 5 (91 to 100)
- Herbicidal effect Scirpus juncoides (herbicidal index) (Scirpus juncoides): 5 (91 to 100)

SMILES: Cc1cc2c(-c3cccc(C(F)(F)F)c3)nc(OC(C)C(C)C)nc2s1 (stereo not drawn) [6-72]
- Herbicidal effect Echinochloa oryzicola (herbicidal index) (Echinochloa oryzicola): 5 (91 to 100)
- Herbicidal effect Rotala indica (herbicidal index) (Rotala indica): 5 (91 to 100)
- Herbicidal effect Scirpus juncoides (herbicidal index) (Scirpus juncoides): 3 (51 to 70)

SMILES: Cc1cc2c(-c3cccc(SC(F)(F)F)c3)nc(OC3CCCC3)nc2s1 [6-86]
- Herbicidal effect Echinochloa oryzicola (herbicidal index) (Echinochloa oryzicola): 5 (91 to 100)
- Herbicidal effect Rotala indica (herbicidal index) (Rotala indica): 5 (91 to 100)
- Herbicidal effect Scirpus juncoides (herbicidal index) (Scirpus juncoides): 4 (71 to 90)

SMILES: Cc1cc2c(-c3cccc(SC(F)(F)F)c3)nc(OCC(F)F)nc2s1 [6-116]
- Herbicidal effect Echinochloa oryzicola (herbicidal index) (Echinochloa oryzicola): 5 (91 to 100)
- Herbicidal effect Rotala indica (herbicidal index) (Rotala indica): 5 (91 to 100)
- Herbicidal effect Scirpus juncoides (herbicidal index) (Scirpus juncoides): 4 (71 to 90)

SMILES: Cc1cc2c(-c3cccc(SC(F)F)c3)nc(OCC(F)(F)F)nc2s1 [6-127]
- Herbicidal effect Echinochloa oryzicola (herbicidal index) (Echinochloa oryzicola): 5 (91 to 100)
- Herbicidal effect Rotala indica (herbicidal index) (Rotala indica): 5 (91 to 100)
- Herbicidal effect Scirpus juncoides (herbicidal index) (Scirpus juncoides): 4 (71 to 90)

SMILES: Cc1cc2c(-c3cccc(C(F)(F)F)c3)nc(Oc3ccccc3)nc2s1 [6-146]
- Herbicidal effect Echinochloa oryzicola (herbicidal index) (Echinochloa oryzicola): 4 (71 to 90)
- Herbicidal effect Rotala indica (herbicidal index) (Rotala indica): 5 (91 to 100)
- Herbicidal effect Scirpus juncoides (herbicidal index) (Scirpus juncoides): 2 (31 to 50)

SMILES: Cc1cc2c(-c3cccc(C(F)(F)F)c3)nc(OS(=O)(=O)CCl)nc2s1 [6-149]
- Herbicidal effect Echinochloa oryzicola (herbicidal index) (Echinochloa oryzicola): 5 (91 to 100)
- Herbicidal effect Rotala indica (herbicidal index) (Rotala indica): 5 (91 to 100)
- Herbicidal effect Scirpus juncoides (herbicidal index) (Scirpus juncoides): 4 (71 to 90)

SMILES: Cc1cc2c(-c3cccc(C(F)(F)F)c3)nc(OS(=O)(=O)CCCCl)nc2s1 [6-157]
- Herbicidal effect Echinochloa oryzicola (herbicidal index) (Echinochloa oryzicola): 5 (91 to 100)
- Herbicidal effect Rotala indica (herbicidal index) (Rotala indica): 5 (91 to 100)
- Herbicidal effect Scirpus juncoides (herbicidal index) (Scirpus juncoides): 4 (71 to 90)

SMILES: Cc1cc2c(-c3ccc(F)c(C(F)(F)F)c3)nc(OCC(F)(F)F)nc2s1 [6-207]
- Herbicidal effect Brassica juncea (herbicidal index) (Brassica juncea): 5 (91 to 100)
- Herbicidal effect Echinochloa crus-galli (herbicidal index) (Echinochloa crus-galli): 5 (91 to 100)
- Herbicidal effect Ipomoea purpurea (herbicidal index) (Ipomoea purpurea): 5 (91 to 100)

SMILES: Cc1cccc(-c2nc(OC(C)C)nc3sc(C)cc23)c1 [6-215]
- Herbicidal effect Brassica juncea (herbicidal index) (Brassica juncea): 5 (91 to 100)
- Herbicidal effect Echinochloa crus-galli (herbicidal index) (Echinochloa crus-galli): 5 (91 to 100)
- Herbicidal effect Ipomoea purpurea (herbicidal index) (Ipomoea purpurea): 5 (91 to 100)

SMILES: Cc1cc2c(-c3ccccc3C)nc(OCC(F)(F)F)nc2s1 [6-217]
- Herbicidal effect Brassica juncea (herbicidal index) (Brassica juncea): 5 (91 to 100)
- Herbicidal effect Echinochloa crus-galli (herbicidal index) (Echinochloa crus-galli): 4 (71 to 90)
- Herbicidal effect Ipomoea purpurea (herbicidal index) (Ipomoea purpurea): 5 (91 to 100)

SMILES: Cc1cc2nc(OCC(F)(F)F)nc(-c3cccc(OC(F)(F)F)c3)c2s1 [6-235]
- Herbicidal effect Brassica juncea (herbicidal index) (Brassica juncea): 5 (91 to 100)
- Herbicidal effect Echinochloa crus-galli (herbicidal index) (Echinochloa crus-galli): 5 (91 to 100)
- Herbicidal effect Ipomoea purpurea (herbicidal index) (Ipomoea purpurea): 5 (91 to 100)

SMILES: C#CC(C)Oc1nc(-c2cccc(OC(F)(F)F)c2)c2sc(C)cc2n1 (stereo not drawn) [6-236]
- Herbicidal effect Brassica juncea (herbicidal index) (Brassica juncea): 5 (91 to 100)
- Herbicidal effect Echinochloa crus-galli (herbicidal index) (Echinochloa crus-galli): 5 (91 to 100)
- Herbicidal effect Ipomoea purpurea (herbicidal index) (Ipomoea purpurea): 5 (91 to 100)

SMILES: Cc1cc2c(-c3cccc(C)c3C)nc(OCC(F)(F)F)nc2s1 [6-245]
- Herbicidal effect Brassica juncea (herbicidal index) (Brassica juncea): 5 (91 to 100)
- Herbicidal effect Echinochloa crus-galli (herbicidal index) (Echinochloa crus-galli): 4 (71 to 90)
- Herbicidal effect Ipomoea purpurea (herbicidal index) (Ipomoea purpurea): 5 (91 to 100)

SMILES: Cc1cc2c(-c3ccccc3C(F)(F)F)nc(OCC(F)(F)C(F)F)nc2s1 [6-249]
- Herbicidal effect Brassica juncea (herbicidal index) (Brassica juncea): 5 (91 to 100)
- Herbicidal effect Echinochloa crus-galli (herbicidal index) (Echinochloa crus-galli): 4 (71 to 90)
- Herbicidal effect Ipomoea purpurea (herbicidal index) (Ipomoea purpurea): 5 (91 to 100)

SMILES: Cc1cc2c(-c3ccccc3OC(F)(F)F)nc(OCC(F)(F)F)nc2s1 [6-251]
- Herbicidal effect Brassica juncea (herbicidal index) (Brassica juncea): 5 (91 to 100)
- Herbicidal effect Echinochloa crus-galli (herbicidal index) (Echinochloa crus-galli): 5 (91 to 100)
- Herbicidal effect Ipomoea purpurea (herbicidal index) (Ipomoea purpurea): 5 (91 to 100)

SMILES: CCCOc1nc(-c2ccc(F)c(C(F)(F)F)c2)c2cc(C)sc2n1 [Compound No. 6-29, 4-[4-fluoro-3-(trifluoromethyl)phenyl]-6-methyl-2-propoxythieno[2,3-d]pyrimidine]
- Herbicidal effect Brassica juncea (herbicidal index) (Brassica juncea): 4 (71 to 90)
- Herbicidal effect Echinochloa crus-galli (herbicidal index) (Echinochloa crus-galli): 4 (71 to 90)
- Herbicidal effect Ipomoea purpurea (herbicidal index) (Ipomoea purpurea): 5 (91 to 100)

Source: patent US20070010402A1, “Novel herbicides, usage thereof, novel thienopyrimidine derivatives, intermediates of the same, and process for production thereof” (NIHON NOHYAKU CO., LTD.,, priority 2002, published 2007)
